# Source: patent US20110046147A1, “17BETA-HYDROXYSTEROID DEHYDROGENASE TYPE 1 INHIBITORS FOR THE TREATMENT OF HORMONE-RELATED DISEASES” (UNIVERSITAT DES SAARLANDES, priority 2007, published 2011)
# Experiments:
# [1] = target: T1, 17β-HSD1 (Homo sapiens, UniProt P14061); test: Inhibition of 17β-HSD1 (estrone to estradiol, radio-HPLC); assay type: biochemical
# T1 construct: In both cases, human placenta served as the enzyme source; from tissue; host or cells: human placenta
# T1 sequence (P14061 1-328): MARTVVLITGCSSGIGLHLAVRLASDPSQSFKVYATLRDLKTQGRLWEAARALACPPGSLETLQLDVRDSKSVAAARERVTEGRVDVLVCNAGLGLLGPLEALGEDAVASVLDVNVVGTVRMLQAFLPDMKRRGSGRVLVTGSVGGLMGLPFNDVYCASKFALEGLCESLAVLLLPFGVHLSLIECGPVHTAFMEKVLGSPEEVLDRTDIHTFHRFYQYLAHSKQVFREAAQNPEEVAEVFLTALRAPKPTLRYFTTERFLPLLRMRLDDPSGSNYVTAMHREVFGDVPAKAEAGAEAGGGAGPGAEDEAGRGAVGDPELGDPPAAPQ
# [2] = system: estrogen receptor; conditions: cited from earlier work
compound,measurement,setting,value
"Oc1ccc(-c2csc(-c3ccc(O)cc3)n2)cc1 [Compound 25, 4,4′-(1,3-Thiazole-2,4-diyl)diphenol]",inhibition of 17β-HSD1 (in words),[1],no activity
same,"Inhibition of 17β-HSD1, IC50 (nM)","[1]; Table 6, isomeric bis(hydroxyphenyl)-1,3-thiazoles",no inhibition
same,RBA (%) (Katzenellenbogen patent),[2],0.018%
